Test results taken from patent US20090074761A1, “Therapeutic beta-glucan combinations” (priority 2007, published 2009).

Tests used:
SKOV-3 tumors [1] = assay: immunohistochemistry of tumor sections: iC3b deposition and neutrophil infiltration (FIG. 5); assay type: in vivo, mouse; settings: for neutrophil infiltration in tumors: anti-Gr-1-PE staining of tumor sections; for iC3b deposition in tumors: anti-iC3b-FITC staining of tumor sections
Description: Interaction between the complement activation product iC3b and the I-domain of CR3 provides the first signal for CR3 priming. Engagement of β-glucan with the lectin-like domain of CR3 is additionally required for the full activation of CR3. The dual ligation of CR3 leads to neutrophil CR3-dependent cellular cytotoxicity (Li et al., J Immunol 177:1661-1669). Neutrophil trafficking within tumors is also critical for successful combined β-glucan with anti-tumor mAb therapy (Allendorf et al., J Immunol 174:7050-7056). Therefore, immunohistochemistry studies were carried out to examine complement activation and neutrophil infiltration within tumors after treatment with different regimens.
First, the tumor sections from four groups were stained with an anti-iC3b-FITC and anti-VEGF-PE mAbs. […] Second, the tumor sections were stained with anti-Gr-1-PE mAb to detect neutrophil infiltration.

SKOV-3 tumors [2] = assay: SKOV-3 xenograft model in ICR SCID mice (FIG. 4A, 4B); assay type: in vivo, mouse
Description: (§1) Additional evidence was gathered to show efficacy of in vivo therapy. ICR SCID mice implanted with SKOV-3 cells were compared to ICR SCID mice implanted with Colo38 cells as a control. […] Most of these tumors still retained their sizes before therapy. More importantly, 86% of these mice achieved long-term survival compared with 43% of tumor-bearing mice treated with anti-VEGF mAb only (FIG. 4B).

SKOV-3 tumors [3] = assay: SKOV-3 xenograft in ICR SCID mice, i.v. therapy for 4 weeks (FIG. 3); assay type: in vivo, mouse; settings: 1.2 mg β-glucan twice weekly, 0.2 mg bevacizumab every third day, i.v. 4 weeks; start 300 mm^3
Description: After SKOV-3 cell s.c. implantation, tumors were allowed to grow for over 17 days until they were 300 mm^3. […] Mice were sacrificed when the tumors reached 15 mm in diameter.

SKOV-3 tumors [4] = assay: tumor blood vessel development, anti-CD31 staining of tumor sections (FIG. 6); assay type: in vivo, mouse; settings: anti-CD31-biotin staining, compared to PBS or β-glucan alone
Description: To observe tumor blood vessel development after anti-VEGF mAb therapy, the tumor sections were stained with anti-CD31-biotin mAb.

Colo38 tumors = assay: Colo38 xenograft model in ICR SCID mice (FIG. 4C); assay type: in vivo, mouse; settings: Colo38 xenograft (membrane-bound VEGF negative)
Description: as §1

SKOV-3 cells = assay type: cell-based, human
Procedure: As described above, β-glucan functions with anti-tumor antibodies to activate complement receptor 3 (CR3) and recruit neutrophils that mediate CR3 (iC3b-receptor)-dependent cytotoxicity of tumors coated with iC3b. […] SKOV-3 cells were incubated with anti-VEGF mAb or anti-Her-2/neu mAb in the presence of human complement. Cells were then washed and co-cultured with human neutrophils (E:T ratio=20:1) in the presence of soluble β-glucan. Cytotoxicity was calculated as in Li et al., J Immunol 177:1661-1669.

[5] = system: MDA-MB-483, HBL-100, Colo38 cells; assay: complement activation (iC3b deposition), flow cytometry, cell lines negative for membrane-bound VEGF; assay type: cell-based, human; settings: tumor cell lines negative for membrane-bound VEGF, mouse serum as complement source
Procedure: Next, the ability of anti-VEGF mAb to bind surface-bound VEGF and activate complement, which leads to iC3b deposition, was examined. SKOV-3 cells were mixed with anti-VEGF mAb in the presence of a 1:4 dilution of mouse serum (complement source). For every one million tumor cells, a 100 μL volume of diluted mouse serum containing 10 μg/mL working dilution of anti-VEGF mAb was used. Tumor cells were mixed and incubated at 37° C. for 30 min. The cells were washed in ice cold flow cytometry staining buffer and the cell pellet was resuspended in […] diluted detecting antibody. The cells were incubated on ice for 30 min. and washed twice. Propidium iodide was used to exclude dead cells. The results of cell lines MDA-MB-483, HBL-100, SKOV-3 and Colo38 are shown in histograms 26, 28, 30 and 32 of FIG. 1C, respectively. Cells incubated with anti-VEGF mAb in the presence of complement and stained with anti-mouse iC3b-FITC mAb are represented by bold lines. Controls included cells incubated with mouse complement (dotted line) or without mouse complement (filled gray) and then stained with anti-mouse iC3b-FITC mAb.

Row | Substance | neutrophil infiltration in tumors (SKOV-3 tumors [1]) | iC3b deposition in tumors (SKOV-3 tumors [1]) | tumor burden (SKOV-3 tumors [2]) | tumor size reached (SKOV-3 tumors [3]) [mm^3] | tumor microvessel density (SKOV-3 tumors [4]) | tumor burden (Colo38 tumors) | mice achieving long-term survival (SKOV-3 tumors [2]) [%] | cytotoxicity (SKOV-3 cells) [%] | complement activation (iC3b deposition) [5]
1 | poly-(1-6)-β-D-glucopyranosyl-(1-3)-β-D-glucopyranose [β-glucan] | paucity of iC3b deposition and neutrophil infiltration | no iC3b deposition | did not show any significant tumor regression | 1500±500 | – | – | – | – | –
2 | bevacizumab | significant neutrophil infiltration | massive iC3b deposition | significantly reduced tumor burden | 800±250 | decreased tumor microvessel density | significantly reduced tumor burden | 43 | 0.2 | negative for complement activation
